Several values for one entry are separate records, joined by “and”; a condition that tells them apart may be missing. Equal values may be shown once. Values belong to the compound of their own block, whether it stands above or below them.
How the values were obtained:
Cytochrome P450 2A6 [1] = target: T1, Cytochrome P450 2A6 (Homo sapiens, UniProt P11509); test: (§1) Mechanism based inhibition of human cytochrome P450 2A6 measured by coumarin 7-hydroxylation; type: ADME
T1 sequence (P11509 whole entry): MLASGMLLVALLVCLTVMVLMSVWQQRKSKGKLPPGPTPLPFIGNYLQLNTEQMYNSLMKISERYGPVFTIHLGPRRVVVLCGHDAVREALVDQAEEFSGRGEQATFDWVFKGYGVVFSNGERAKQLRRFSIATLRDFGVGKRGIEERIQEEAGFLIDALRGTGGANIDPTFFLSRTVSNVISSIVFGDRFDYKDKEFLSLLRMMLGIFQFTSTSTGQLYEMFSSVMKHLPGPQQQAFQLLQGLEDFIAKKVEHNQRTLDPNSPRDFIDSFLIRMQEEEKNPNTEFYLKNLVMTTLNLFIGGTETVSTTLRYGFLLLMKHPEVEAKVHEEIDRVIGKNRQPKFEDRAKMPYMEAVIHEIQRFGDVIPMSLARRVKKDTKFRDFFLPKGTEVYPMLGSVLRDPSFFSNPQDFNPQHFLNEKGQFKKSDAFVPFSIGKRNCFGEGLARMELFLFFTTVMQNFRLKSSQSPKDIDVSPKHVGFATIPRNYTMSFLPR

CYP2A6 [2] = target: T2, CYP2A6 (Homo sapiens, UniProt P11509); test: as §1; type: ADME; settings: human, probe coumarin (7-hydroxylation)
T2 sequence (P11509 whole entry): T1 sequence (P11509 whole entry)

Cytochrome P450 2B6 [3] = target: T3, Cytochrome P450 2B6 (Homo sapiens, UniProt P20813); test: Mechanism based inhibition of human cytochrome P450 2B6, partition ratio (value refers to P450 expressed in baculovirus infected insect cells); type: ADME
T3 sequence (P20813 whole entry): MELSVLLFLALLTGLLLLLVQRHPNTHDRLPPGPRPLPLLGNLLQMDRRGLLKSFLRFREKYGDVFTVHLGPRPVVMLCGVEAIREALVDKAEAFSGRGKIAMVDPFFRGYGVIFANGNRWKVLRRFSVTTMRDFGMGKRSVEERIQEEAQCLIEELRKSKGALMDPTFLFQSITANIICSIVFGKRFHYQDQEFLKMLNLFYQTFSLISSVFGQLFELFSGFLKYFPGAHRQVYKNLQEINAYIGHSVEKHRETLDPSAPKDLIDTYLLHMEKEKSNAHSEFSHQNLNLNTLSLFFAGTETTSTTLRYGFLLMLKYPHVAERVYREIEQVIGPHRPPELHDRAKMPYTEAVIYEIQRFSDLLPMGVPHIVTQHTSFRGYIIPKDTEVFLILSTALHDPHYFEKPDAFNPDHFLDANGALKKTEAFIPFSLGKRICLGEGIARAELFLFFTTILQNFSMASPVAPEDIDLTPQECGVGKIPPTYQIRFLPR

CYP3A4 [4] = target: T4, CYP3A4 (Homo sapiens, UniProt P08684); test: (§2) Mechanism based inhibition of human cytochrome P450 3A4 measured by testosterone 6-beta hydroxylation; type: ADME; settings: human, probe testosterone (6-beta hydroxylation)
Cytochrome P450 3A4 [5] = target: T5, Cytochrome P450 3A4 (Homo sapiens, UniProt P08684); test: as §2; type: ADME
CYP3A4 [6] = target: T4, CYP3A4; test: (§3) Mechanism based inhibition of human cytochrome P450 3A4 measured by midazolam 1'-hydroxylation; type: ADME; settings: probe midazolam (1'-hydroxylation)
Cytochrome P450 3A4 [7] = target: T5, Cytochrome P450 3A4; test: as §3; type: ADME
CYP3A4 [8] = target: T4, CYP3A4; test: Mechanism based inhibition of human cytochrome P450 3A4 measured by triazolam 4- hydroxylation using human liver microsomes; type: ADME, Microsome; settings: probe triazolam (4-hydroxylation)
CYP3A4 [9] = target: T4, CYP3A4; test: Mechanism based inhibition of human cytochrome P450 3A4 measured by triazolam alpha- hydroxylation using human liver microsomes; type: ADME, Microsome; settings: probe triazolam (alpha-hydroxylation)
CYP3A4 [10] = target: T4, CYP3A4; test: Mechanism based inhibition of human cytochrome P450 3A4 measured by triazolam 4- hydroxylation using recombinant CYP3A4; type: ADME; settings: recombinant CYP3A4, probe triazolam (4-hydroxylation)
CYP3A4 [11] = target: T4, CYP3A4; test: Mechanism based inhibition of human cytochrome P450 3A4 measured by triazolam alpha- hydroxylation using recombinant CYP3A4; type: ADME; settings: recombinant CYP3A4, probe triazolam (alpha-hydroxylation)
Cytochrome P450 2B1 = target: T6, Cytochrome P450 2B1 (Rattus norvegicus, UniProt P00176); test: Mechanism based inhibition of rat cytochrome P450 2B1 measured by 7-EFC O-deethylation
T6 sequence (P00176 whole entry): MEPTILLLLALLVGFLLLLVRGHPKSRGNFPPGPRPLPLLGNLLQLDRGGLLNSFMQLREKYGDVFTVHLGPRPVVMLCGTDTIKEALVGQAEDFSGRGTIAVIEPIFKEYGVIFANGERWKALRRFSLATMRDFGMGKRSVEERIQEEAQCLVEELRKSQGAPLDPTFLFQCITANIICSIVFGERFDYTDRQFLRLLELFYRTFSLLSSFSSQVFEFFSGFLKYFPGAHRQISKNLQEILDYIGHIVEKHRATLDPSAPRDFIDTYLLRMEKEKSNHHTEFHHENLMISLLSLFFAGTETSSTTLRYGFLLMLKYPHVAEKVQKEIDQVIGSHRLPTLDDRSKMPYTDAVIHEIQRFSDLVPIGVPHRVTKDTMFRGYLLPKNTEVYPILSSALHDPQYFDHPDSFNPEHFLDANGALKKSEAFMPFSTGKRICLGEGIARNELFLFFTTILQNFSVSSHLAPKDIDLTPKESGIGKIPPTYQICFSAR

Cytochrome P450 2B6 [12] = target: T3, Cytochrome P450 2B6; test: (§4) Mechanism based inhibition of human cytochrome P450 2B6 measured by 7-EFC O-deethylation
Cytochrome P450 2B6 [13] = target: T3, Cytochrome P450 2B6; test: as §4; remark: listed apart in the source
Cytochrome P450 3A4 [14] = target: T5, Cytochrome P450 3A4; test: Mechanism based inhibition of human cytochrome P450 3A4 measured by midazolam hydroxylation in vivo; type: ADME, organism-based
CYP3A4 [15] = target: T4, CYP3A4; test: (§5) Mechanism based inhibition of human cytochrome P450 3A4 measured by N-demethylation of erythromycin; type: ADME; settings: human, probe erythromycin (N-demethylation)
Cytochrome P450 3A4 [16] = target: T5, Cytochrome P450 3A4; test: as §5; type: ADME
Cytochrome P450 2A6 [17] = target: T1, Cytochrome P450 2A6; test: (§6) Mechanism based inhibition of human cytochrome P450 2A6 measured by coumarin 7-hxdroxylation using purified P450; type: ADME
CYP2A6 [18] = target: T2, CYP2A6; test: as §6; type: ADME; settings: human, purified CYP2A6, probe coumarin (7-hydroxylation)
Cytochrome P450 2A6 [19] = target: T1, Cytochrome P450 2A6; test: Mechanism based inhibition of human cytochrome P450 2A6, partition ratio; type: ADME
Cytochrome P450 2A6 [20] = target: T1, Cytochrome P450 2A6; test: (§7) Mechanism based inhibition of human cytochrome P450 2A6 measured by coumarin 7-hydroxylation using human liver microsomes; type: ADME, Microsome
CYP2A6 [21] = target: T2, CYP2A6; test: as §7; type: ADME, Microsome; settings: human, human liver microsomes, probe coumarin
Cytochrome P450 3A4 [22] = target: T5, Cytochrome P450 3A4; test: Mechanism based inhibition of human cytochrome P450 3A4 measured by testosterone 6-beta hydroxylation and midazolam 1'-hydroxylation; type: ADME
CYP3A4 [23] = target: T4, CYP3A4; test: (§8) Mechanism based inhibition of human cytochrome P450 3A4 measured by testosterone 6-beta hydroxylation using human liver microsomes; type: ADME, Microsome; settings: human, liver microsomes, probe testosterone (6-beta hydroxylation)
Cytochrome P450 3A4 [24] = target: T5, Cytochrome P450 3A4; test: as §8; type: ADME, Microsome
CYP3A4 [25] = target: T4, CYP3A4; test: (§9) Mechanism based inhibition of human cytochrome P450 3A4 using expressed CYP3A4 cDNA; type: ADME; settings: human, cDNA-expressed CYP3A4
Cytochrome P450 3A4 [26] = target: T5, Cytochrome P450 3A4; test: as §9; type: ADME
CYP3A4 [27] = target: T4, CYP3A4; test: (§10) Mechanism based inhibition of human cytochrome P450 3A4 measured by testosterone 6-beta hydroxylation using a recombinant system; type: ADME; settings: human, recombinant CYP3A4 system, probe testosterone (6-beta hydroxylation)
Cytochrome P450 3A4 [28] = target: T5, Cytochrome P450 3A4; test: as §10; type: ADME
Cytochrome P450 3A5 = Cytochrome P450 3A5 (Homo sapiens, UniProt P20815); test: (§11) Mechanism based inhibition of human cytochrome P450 3A5 using expressed CYP3A5 cDNA; type: ADME
CYP3A5 = CYP3A5 (Homo sapiens, UniProt P20815); test: as §11; type: ADME; settings: human, cDNA-expressed CYP3A5
Cytochrome P450 2B6 [29] = target: T3, Cytochrome P450 2B6; test: Mechanism based inhibition of human cytochrome P450 2B6, partition ratio (value refers to P450 expressed in lymphoblastoid cells); type: ADME, cell-based

T5 sequence (P08684 whole entry): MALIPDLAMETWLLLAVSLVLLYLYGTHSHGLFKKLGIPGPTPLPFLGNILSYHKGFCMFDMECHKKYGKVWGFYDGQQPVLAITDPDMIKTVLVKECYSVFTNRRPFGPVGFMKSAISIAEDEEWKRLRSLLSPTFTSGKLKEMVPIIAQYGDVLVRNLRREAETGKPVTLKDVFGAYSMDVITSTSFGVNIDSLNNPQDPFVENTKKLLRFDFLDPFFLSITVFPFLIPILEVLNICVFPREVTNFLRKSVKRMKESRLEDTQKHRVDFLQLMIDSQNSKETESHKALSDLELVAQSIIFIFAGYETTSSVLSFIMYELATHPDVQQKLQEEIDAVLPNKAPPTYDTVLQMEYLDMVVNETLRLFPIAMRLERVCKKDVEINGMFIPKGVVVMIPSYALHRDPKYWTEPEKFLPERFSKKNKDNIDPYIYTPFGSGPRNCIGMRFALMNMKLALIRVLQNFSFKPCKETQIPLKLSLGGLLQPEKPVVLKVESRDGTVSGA
T4 sequence (P08684 whole entry): as above
Cytochrome P450 3A5, sequence (P20815 whole entry): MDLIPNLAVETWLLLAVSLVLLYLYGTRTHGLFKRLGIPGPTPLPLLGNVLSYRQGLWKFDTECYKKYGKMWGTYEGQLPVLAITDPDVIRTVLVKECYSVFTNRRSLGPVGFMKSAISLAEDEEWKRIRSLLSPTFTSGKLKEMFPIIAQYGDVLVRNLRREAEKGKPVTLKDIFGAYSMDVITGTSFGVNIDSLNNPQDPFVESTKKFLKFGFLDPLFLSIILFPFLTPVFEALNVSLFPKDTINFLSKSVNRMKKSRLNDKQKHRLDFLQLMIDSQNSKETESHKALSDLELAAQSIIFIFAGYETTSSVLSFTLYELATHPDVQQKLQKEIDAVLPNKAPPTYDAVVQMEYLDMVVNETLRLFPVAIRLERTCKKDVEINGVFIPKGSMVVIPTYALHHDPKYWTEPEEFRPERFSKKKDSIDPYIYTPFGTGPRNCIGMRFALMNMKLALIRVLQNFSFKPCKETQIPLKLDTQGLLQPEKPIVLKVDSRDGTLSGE
CYP3A5, sequence (P20815 whole entry): as above

SMILES: COc1c2ccoc2cc2oc(=O)ccc12 [BERGAPTEN]
Ki (Cytochrome P450 2A6 [1]): 12 µM | kinact (CYP2A6 [2]): 0.006 s⁻¹ | Partition ratio (Cytochrome P450 2B6 [3]): 57.4

SMILES: CC[C@H]1OC(=O)[C@H](C)[C@@H](O[C@H]2C[C@@](C)(OC)[C@@H](O)[C@H](C)O2)[C@H](C)[C@@H](O[C@@H]2O[C@H](C)C[C@H](N(C)C)[C@H]2O)[C@](C)(O)C[C@@H](C)C(=O)[C@H](C)[C@@H](O)[C@]1(C)O [ERYTHROMYCIN]
kinact (CYP3A4 [8]): 0.000917 s⁻¹ | kinact (CYP3A4 [9]): 0.00103 s⁻¹ | kinact (CYP3A4 [10]): 0.00162 s⁻¹ | kinact (CYP3A4 [11]): 0.00288 s⁻¹ | mechanism based inhibition (Cytochrome P450 3A4 [5]): Cytochrome P450 mechanistic inhibitor: PMID 9806945

SMILES: Cc1coc2c1CCC(C)C2 (stereo not given) [MENTHOFURAN]
Ki (Cytochrome P450 2A6 [17]): 840 nM | kinact (CYP2A6 [18]): 0.00417 s⁻¹ | Partition ratio (Cytochrome P450 2A6 [19]): 3.5 | Ki (Cytochrome P450 2A6 [20]): 2500 nM | kinact (CYP2A6 [21]): 0.00367 s⁻¹

SMILES: COCC(=O)O[C@]1(CCN(C)CCCc2nc3ccccc3[nH]2)CCc2cc(F)ccc2[C@@H]1C(C)C [MIBEFRADIL]
mechanism based inhibition (Cytochrome P450 3A4 [22]): Cytochrome P450 mechanistic inhibitor: PMID 10640508

More lines, main results first:

kinact (CYP3A4 [4]): 0.00133 s⁻¹ | Ki (Cytochrome P450 3A4 [5]): 2600 nM | kinact (CYP3A4 [6]): 0.00217 s⁻¹ | Ki (Cytochrome P450 3A4 [7]): 12 µM
SMILES: CC/C(=C(\c1ccccc1)c1ccc(OCCN)cc1)c1ccccc1 [DESMETHYL TAMOXIFEN]

Ki (Cytochrome P450 2B1): 11 µM | Ki (Cytochrome P450 2B6 [12]): 800 nM | Ki (Cytochrome P450 2B6 [13]): 900 nM
SMILES: C#C[C@]1(O)CC[C@H]2[C@@H]3CCc4cc(O)ccc4[C@H]3CC[C@@]21C [ETHINYL ESTRADIOL]
mechanism based inhibition (Cytochrome P450 3A4 [14]): Cytochrome P450 mechanistic inhibitor: PMID 11012556

kinact (CYP3A4 [15]): 0.00153 s⁻¹ | Ki (Cytochrome P450 3A4 [16]): 399 nM
SMILES: COc1cc2c(c(OC)c1OC)-c1c(cc3c(c1OC)OCO3)C[C@H](C)[C@](C)(O)[C@H]2OC(=O)c1ccccc1 [GOMISIN C]

kinact (CYP3A4 [23]): 0.0035 s⁻¹ | Ki (Cytochrome P450 3A4 [24]): 2110 nM | kinact (CYP3A4 [25]): 0.005 s⁻¹ | Ki (Cytochrome P450 3A4 [26]): 10.3 µM | kinact (CYP3A4 [27]): 0.0187 s⁻¹ | Ki (Cytochrome P450 3A4 [28]): 5.89 µM | Ki (Cytochrome P450 3A5): 4.53 µM | kinact (CYP3A5): 0.00117 s⁻¹
SMILES: COc1ccc(CCNCCCC(C#N)(c2ccc(OC)c(OC)c2)C(C)C)cc1OC (stereo not given) [NORVERAPAMIL]

Partition ratio (Cytochrome P450 2B6 [29]): 46 and 71.2 | Ki (Cytochrome P450 2A6 [1]): 0.6 µM | kinact (CYP2A6 [2]): 0.005 s⁻¹
SMILES: O=c1ccc2cc3ccoc3cc2o1 [PSORALEN]

From ChEMBL document CHEMBL1743341, “Cytochrome p450 enzymes mechanism based inhibitors: common sub-structures and reactivity” (Curr Drug Metab, 2005)
